Test results reported in PMC7142328 (Journal of natural products, 2018).

Key:
[1] = molecular target: T1, rat α4β2 nAChR (Rattus norvegicus, UniProt P09483+P12390); format: cell-based
[2] = molecular target: T1, rat α4β2 nAChR; format: binding
[3] = molecular target: native nAChR in rat forebrain (Rattus norvegicus, UniProt P09483+P12390); format: binding
[4] = molecular target: T2, rat α3β4 nAChR (Rattus norvegicus, UniProt P04757+P12392); format: binding
[5] = molecular target: rat α3β2 nAChR (Rattus norvegicus, UniProt P04757+P12390); experiment: Two-electrode voltage clamp electrophysiology in Xenopus oocytes, α3β2; format: cell-based
[6] = molecular target: T3, rat α7 nAChR (Rattus norvegicus, UniProt Q05941); format: cell-based
[7] = molecular target: T2, rat α3β4 nAChR; experiment: cell-based; format: cell-based
[8] = molecular target: T4, 5-HT3A receptor (Rattus norvegicus, UniProt P35563); experiment: Two-electrode voltage clamp electrophysiology in Xenopus oocytes, 5-HT3A; format: cell-based
T4 sequence (P35563 24-483): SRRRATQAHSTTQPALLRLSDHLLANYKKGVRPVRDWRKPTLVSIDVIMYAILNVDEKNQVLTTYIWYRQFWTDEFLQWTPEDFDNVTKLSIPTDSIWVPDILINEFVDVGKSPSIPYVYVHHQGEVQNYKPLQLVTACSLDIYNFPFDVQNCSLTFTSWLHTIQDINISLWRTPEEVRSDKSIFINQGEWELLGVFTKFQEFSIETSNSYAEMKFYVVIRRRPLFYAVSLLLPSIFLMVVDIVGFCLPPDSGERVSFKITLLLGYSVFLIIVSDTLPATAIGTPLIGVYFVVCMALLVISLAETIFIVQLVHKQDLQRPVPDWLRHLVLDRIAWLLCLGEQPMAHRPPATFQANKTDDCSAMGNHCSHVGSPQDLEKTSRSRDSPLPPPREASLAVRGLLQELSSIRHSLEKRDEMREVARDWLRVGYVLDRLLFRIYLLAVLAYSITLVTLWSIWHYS

[9] = In-vivo toxicity; conditions: male, Swiss-Webster, mouse, in vivo, iv
[10] = molecular target: Human α4β2 nAChR (Homo sapiens, UniProt P17787+P43681); format: cell-based; conditions: for agonist character, α4β2: relative to nicotine
[11] = tested on: Swiss-Webster mice; conditions: cited from earlier work
[12] = molecular target: T3, rat α7 nAChR; format: binding
[13] = tested on: nAChR; experiment: Overall nAChR pharmacology, summary statements; conditions: most receptors tested
[14] = tested on: Swiss-Webster mice; experiment: In-vivo toxicity; conditions: mice; for signs of toxicity: intravenous

T1 sequence (P09483 31-630): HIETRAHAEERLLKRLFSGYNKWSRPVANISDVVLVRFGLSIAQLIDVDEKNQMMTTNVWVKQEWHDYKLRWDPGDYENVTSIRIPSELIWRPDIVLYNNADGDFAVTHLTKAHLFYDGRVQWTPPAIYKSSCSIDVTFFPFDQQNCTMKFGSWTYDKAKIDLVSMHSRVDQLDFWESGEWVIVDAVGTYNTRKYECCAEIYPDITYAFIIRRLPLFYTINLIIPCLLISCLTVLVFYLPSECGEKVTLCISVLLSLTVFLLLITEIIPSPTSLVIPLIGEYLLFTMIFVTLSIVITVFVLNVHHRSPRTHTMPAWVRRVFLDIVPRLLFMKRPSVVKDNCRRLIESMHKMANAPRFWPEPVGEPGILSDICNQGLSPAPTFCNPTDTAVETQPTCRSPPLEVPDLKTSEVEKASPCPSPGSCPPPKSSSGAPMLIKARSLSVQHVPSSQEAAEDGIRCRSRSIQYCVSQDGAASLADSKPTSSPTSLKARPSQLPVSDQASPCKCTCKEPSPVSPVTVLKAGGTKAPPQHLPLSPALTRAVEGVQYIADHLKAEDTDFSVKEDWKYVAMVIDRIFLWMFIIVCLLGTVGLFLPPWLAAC
T1 sequence (P12390 25-500): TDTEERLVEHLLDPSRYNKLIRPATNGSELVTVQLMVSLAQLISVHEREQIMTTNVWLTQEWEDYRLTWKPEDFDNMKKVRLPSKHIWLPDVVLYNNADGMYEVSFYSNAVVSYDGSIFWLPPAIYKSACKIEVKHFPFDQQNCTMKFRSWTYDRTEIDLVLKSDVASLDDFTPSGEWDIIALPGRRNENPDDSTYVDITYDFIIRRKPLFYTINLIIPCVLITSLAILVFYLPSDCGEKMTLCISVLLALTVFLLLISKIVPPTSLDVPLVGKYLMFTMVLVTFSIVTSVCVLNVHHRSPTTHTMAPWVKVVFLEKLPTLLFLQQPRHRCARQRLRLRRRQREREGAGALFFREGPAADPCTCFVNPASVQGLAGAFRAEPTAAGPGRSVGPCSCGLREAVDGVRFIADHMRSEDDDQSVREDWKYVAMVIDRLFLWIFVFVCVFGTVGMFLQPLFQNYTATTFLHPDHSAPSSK
Sequence of Human α4β2 nAChR (P43681 29-627 limits assumed): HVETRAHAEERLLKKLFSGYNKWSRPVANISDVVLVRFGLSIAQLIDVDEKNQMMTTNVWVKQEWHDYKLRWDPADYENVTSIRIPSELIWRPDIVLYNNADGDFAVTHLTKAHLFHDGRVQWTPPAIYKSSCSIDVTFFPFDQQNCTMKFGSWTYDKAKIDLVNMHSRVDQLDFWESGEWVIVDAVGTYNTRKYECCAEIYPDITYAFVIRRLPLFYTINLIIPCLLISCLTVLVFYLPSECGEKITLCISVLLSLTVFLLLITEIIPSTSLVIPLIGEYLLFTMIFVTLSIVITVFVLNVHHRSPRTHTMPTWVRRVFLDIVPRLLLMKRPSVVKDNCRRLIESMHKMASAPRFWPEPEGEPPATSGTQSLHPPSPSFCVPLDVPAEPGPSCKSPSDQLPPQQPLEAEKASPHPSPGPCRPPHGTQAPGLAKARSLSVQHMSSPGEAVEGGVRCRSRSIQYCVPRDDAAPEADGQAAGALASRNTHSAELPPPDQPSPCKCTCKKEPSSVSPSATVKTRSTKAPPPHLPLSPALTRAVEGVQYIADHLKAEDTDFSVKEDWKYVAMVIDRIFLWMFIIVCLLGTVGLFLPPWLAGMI
Sequence of Human α4β2 nAChR (P17787 26-502): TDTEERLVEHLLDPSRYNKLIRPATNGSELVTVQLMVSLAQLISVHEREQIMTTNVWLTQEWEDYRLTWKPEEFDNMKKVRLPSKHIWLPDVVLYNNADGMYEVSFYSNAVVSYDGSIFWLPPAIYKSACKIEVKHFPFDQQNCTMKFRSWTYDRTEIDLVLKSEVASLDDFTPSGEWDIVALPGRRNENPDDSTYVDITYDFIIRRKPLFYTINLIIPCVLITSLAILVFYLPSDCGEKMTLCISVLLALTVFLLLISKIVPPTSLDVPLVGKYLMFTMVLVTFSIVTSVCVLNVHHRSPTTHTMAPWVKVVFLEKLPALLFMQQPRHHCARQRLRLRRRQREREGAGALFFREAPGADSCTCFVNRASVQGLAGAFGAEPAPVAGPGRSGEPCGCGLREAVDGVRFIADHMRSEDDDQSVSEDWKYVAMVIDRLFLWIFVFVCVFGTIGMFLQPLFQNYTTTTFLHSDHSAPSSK
T3 sequence (Q05941 23-502): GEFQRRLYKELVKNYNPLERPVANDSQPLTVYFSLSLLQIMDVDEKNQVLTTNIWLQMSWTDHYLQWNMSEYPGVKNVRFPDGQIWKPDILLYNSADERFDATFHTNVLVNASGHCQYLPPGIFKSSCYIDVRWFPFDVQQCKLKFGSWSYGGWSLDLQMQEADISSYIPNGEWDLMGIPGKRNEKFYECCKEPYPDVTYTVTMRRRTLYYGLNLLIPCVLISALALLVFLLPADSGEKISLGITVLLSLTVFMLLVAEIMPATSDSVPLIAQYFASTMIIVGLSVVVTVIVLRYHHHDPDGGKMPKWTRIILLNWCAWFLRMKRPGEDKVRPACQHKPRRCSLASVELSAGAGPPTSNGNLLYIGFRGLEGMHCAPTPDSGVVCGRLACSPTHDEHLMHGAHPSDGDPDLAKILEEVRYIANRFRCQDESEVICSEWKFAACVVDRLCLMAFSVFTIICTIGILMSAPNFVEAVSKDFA
T2 sequence (P12392 21-495): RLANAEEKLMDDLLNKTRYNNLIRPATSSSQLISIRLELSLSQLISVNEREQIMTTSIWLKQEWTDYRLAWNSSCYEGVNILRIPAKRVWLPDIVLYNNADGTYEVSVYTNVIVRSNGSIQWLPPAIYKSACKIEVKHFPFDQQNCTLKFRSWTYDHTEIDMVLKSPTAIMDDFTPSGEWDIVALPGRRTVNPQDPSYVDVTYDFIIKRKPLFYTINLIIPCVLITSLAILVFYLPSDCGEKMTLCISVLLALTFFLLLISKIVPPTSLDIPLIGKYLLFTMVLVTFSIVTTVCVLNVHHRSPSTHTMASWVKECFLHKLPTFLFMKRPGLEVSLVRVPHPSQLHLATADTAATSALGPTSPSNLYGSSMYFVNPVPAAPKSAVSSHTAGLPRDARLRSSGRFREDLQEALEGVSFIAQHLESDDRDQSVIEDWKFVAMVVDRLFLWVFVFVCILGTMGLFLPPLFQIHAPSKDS
T2 sequence (P04757 26-499): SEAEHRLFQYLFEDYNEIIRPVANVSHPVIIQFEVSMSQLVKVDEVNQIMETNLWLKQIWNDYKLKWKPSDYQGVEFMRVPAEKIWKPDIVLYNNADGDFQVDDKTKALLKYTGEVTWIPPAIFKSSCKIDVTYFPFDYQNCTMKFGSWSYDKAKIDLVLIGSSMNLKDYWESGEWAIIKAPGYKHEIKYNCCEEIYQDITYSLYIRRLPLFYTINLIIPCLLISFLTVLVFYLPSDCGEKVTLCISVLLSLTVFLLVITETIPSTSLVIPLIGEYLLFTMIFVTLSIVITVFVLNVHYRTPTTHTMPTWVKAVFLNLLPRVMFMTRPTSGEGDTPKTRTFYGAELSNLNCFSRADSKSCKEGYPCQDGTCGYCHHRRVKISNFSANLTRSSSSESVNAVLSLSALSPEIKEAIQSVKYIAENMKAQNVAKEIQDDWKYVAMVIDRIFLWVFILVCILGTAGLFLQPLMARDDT
Sequence of rat α3β2 nAChR (P04757 26-499): as above
Sequence of rat α3β2 nAChR (P12390 25-500): as the sequence (P12390 25-500) above
Sequence of native nAChR in rat forebrain (P12390 25-500): as above
Sequence of native nAChR in rat forebrain (P09483 31-630): as the sequence (P09483 31-630) above

## Clc1ccc2c(n1)OC13CCC1NCC23 (racemic) [(±)-1, phantasmidine]
[1]
  Hillslope α4β2: 1.6
[1]; vs acetylcholine, oocytes
  agonist character, α4β2: partial agonist
[2]
  lower binding affinity than epibatidine (2a), α4β2: 10 fold
[2]; binding
  higher affinity for α4β2 over α3β4 receptors: at least 30 fold
[3]
  lower binding affinity than epibatidine (2a), native receptors in rat forebrain: 25 fold
[4]
  lower binding affinity than epibatidine (2a), α3β4: 50 fold
[5]
  Hillslope α3β2: 1.57
[5]; vs acetylcholine, oocytes
  agonist character, α3β2: partial agonist
[6]
  Hillslope α7: 1.8
[6]; vs acetylcholine, oocytes
  agonist character, α7: full agonist
[7]
  Eudismic Ratio, 86Rb efflux α3β4: 47
[7]; 86Rb efflux
  difference in functional potency vs 2a, α3β4: 18 fold
[7]; 86Rb efflux, relative to nicotine
  agonist character, α3β4: near-full agonist
[8]
  Hillslope 5HT3A: 1.7
[8]; vs meta-chlorophenylbiguanide (mCPBG), oocytes
  agonist character, 5-HT3A: partial agonist
[9]
  LD50: 0.27 ± 0.19 mg/kg
[10]
  Eudismic Ratio, 86Rb efflux α4β2: 280
[10]; 86Rb efflux
  difference in functional potency vs 2a, α4β2: 8 fold
  agonist character, α4β2: very potent partial agonist

## Clc1ccc(C2CC3CCC2N3)cn1 (racemic) [(±)-2, epibatidine, reference compound]
[9]
  LD50: 0.0015 ± 0.0003 mg/kg

## CN1CCC[C@H]1c1cccnc1 [2S-(−)-Nicotine, reference compound]
[11]
  LD50 in mouse: 0.3 mg/kg
[7]; read-out: Emax Rat α3β4
  Emax: 107 ± 3%

## Clc1ccc2c(n1)O[C@]13CC[C@H]1NC[C@H]23 [(2aR,4aS,9aS)-1, phantasmidine]
[1]
  Hillslope α4β2: 1.8
[2]; across the subtypes and forebrain of Table 1
  higher affinity than the distomer ent-1: 30-44 fold
[12]
  affinity less than 2a, α7: 2 fold
[13]
  less potent than epibatidine: ~ 10 fold
  more potent than nicotine: ~ 100 fold
[6]
  Eudismic Ratio, electrophysiology α7: 5
  Hillslope α7: 1.5
[14]; LD50 comparison
  less toxic than racemic 2a: 48 fold
[14]; dose of 40 μg/kg
  signs of toxicity: piloerection, slight elevated respiration and complete recovery in less than 1 min
[14]; dose of 50 μg/kg
  signs of toxicity: piloerection, elevated respiration, hyperactivity (running) progressing to tonic clonic seizures and death in less than 30 sec
[14]
  eudismic ratio of toxicity: around 100
[9]
  LD50: 0.072 ± 0.014 mg/kg

## Clc1ccc2c(n1)O[C@@]13CC[C@@H]1NC[C@@H]23 [(2aS,4aR,9aR)-ent-1]
[1]
  Hillslope α4β2: 1.7
[6]
  Hillslope α7: 1.3
[10]; 86Rb efflux
  agonist character, α4β2: full agonist

## CC(=O)OCC[N+](C)(C)C [Acetylcholine, reference compound]
[1]
  Hillslope α4β2: 24 ± 6 (1.0 ± 0.1) 1.0
  Imax α4β2: 24 ± 6 (1.0 ± 0.1) 1.0
[6]
  Hillslope α7: 1.5
[6]; normalized to 1 mm acetylcholine
  Imax α7: 1.0 ± 0.1

## CO[C@H]1CC=C2CCN3CCC4=C(CC(=O)OC4)[C@]23C1 [DHβE, dihydro-β-erythroidine, reference compound]
[1]; 2 min pre-application of 10 nM DHβE, n=4, α3β2 and α4β2 currents
  block of currents induced by 10 nM (±)-1: completely blocked

## CN1[C@@H]2CC[C@H]1C[C@@H](OC(=O)c1c[nH]c3ccccc13)C2 [tropisetron, reference compound]
[8]
  block of currents induced by 100 μM (±)-1: completely blocks
